Data from US10315994B2, “Photostable compounds, absorbing compounds and uses thereof” (Commonwealth Scientific and Industrial Research Organisation, priority 2015, dated 2019).

Test: UV/visible absorbance characteristics (λmax, λcrit, ε, E 1%,1 cm)
Type: physicochemical
[1] = Table 1, in M-1 cm-1 (unit assumed)
[2] = Table 2, in M-1 cm-1 (unit assumed)
[3] = Table 5, in M-1 cm-1 (unit assumed)

In the case of `CC1(C)CCN(c2ccc(N3C=C(C(=O)C(F)(F)F)C(C)(C)CC3)cc2)C=C1C(=O)C(F)(F)F` [Compound 116], the “E (1%, 1 cm)” value (Table 1) is reported as 1120, the λcrit (Table 1) is reported as 386 nm and the λmax (Table 1) is reported as 367 nm. For the same molecule, the ε [1] was 54658, the “E (1%, 1 cm)” value (Table 2) was 1120 and the λcrit (Table 2) was 387 nm. It also gave a λmax (Table 2) of 367 nm and a ε [2] of 54658.
In the case of `CCCCCCC(=O)C1=CN(c2ccc(N3C=C(C(=O)CCCCCC)C(C)(C)CC3)cc2)CCC1(C)C` [1,1′-(1,4-phenylenebis(4,4-dimethyl-1,4,5,6-tetrahydropyridine-1,3-diyl))bis(heptan-1-one)], the “UV λmax” value (synthesis section) is reported as 359 nm and the ε (synthesis section) is reported as 70222 M⁻¹ cm⁻¹.
With `Cc1cc(N2C=C(C(=O)C(F)(F)F)C(C)(C)CC2)ccc1N1C=C(C(=O)C(F)(F)F)C(C)(C)CC1` the “E (1%, 1 cm)” value (Table 5) was 1170, the λcrit (Table 5) was 369 nm and the λmax (Table 5) was 347 nm. For the same molecule, the ε [3] was 58853.
In the case of `Cc1ccc(N2C=C(C(=O)C(F)(F)F)C(C)(C)CC2)cc1N1C=C(C(=O)C(F)(F)F)C(C)(C)CC1`, the “E (1%, 1 cm)” value (Table 5) is reported as 1315, the λcrit (Table 5) is reported as 358 nm and the λmax (Table 5) is reported as 339 nm. It also gave a ε [3] of 66020.
Work on `CC1(C)CCN(C(C)(C)C)C=C1C(=O)c1c(F)c(F)c(F)c(F)c1F` [Compound 185] yielded a λmax (Table 7, benzoyl derivatives) of 315 nm.
With `CCC(=O)C1=CN(c2ccc(Oc3ccc(N4C=C(C(=O)CC)C(C)(C)CC4)cc3)cc2)CCC1(C)C` [Compound 118] the ε [1] was 56063.
In the case of `CCCCC(CC)CN(c1ccc(C(=O)C2=CN(C(C)(C)C)CCC2(C)C)cc1)c1ccc(C(=O)C2=CN(C(C)(C)C)CCC2(C)C)cc1` (stereo not drawn) [drawing 95, (((2-ethylhexyl)azanediyl)bis(4,1-phenylene))bis((1-(tert-butyl)-4,4-dimethyl-1,4,5,6-tetrahydropyridin-3-yl)methanone)], the “UV λmax” value (synthesis section) is reported as 316 nm and the ε (synthesis section) is reported as 41598 M⁻¹ cm⁻¹.
In the case of `Cc1c(N2C=C(C(=O)C(F)(F)F)C(C)(C)CC2)cccc1N1C=C(C(=O)C(F)(F)F)C(C)(C)CC1`, the “E (1%, 1 cm)” value (Table 5) is reported as 1495, the λcrit (Table 5) is reported as 346 nm and the λmax (Table 5) is reported as 326 nm. The ε [3] was 75074.
In the case of `CC1(C)CCN(C(C)(C)C)C=C1C(=O)/C=C/c1ccc(/C=C/C(=O)C2=CN(C(C)(C)C)CCC2(C)C)cc1` [(2E,2′E)-3,3′-(1,4-phenylene)bis(1-(1-(tert-butyl)-4,4-dimethyl-1,4,5,6-tetrahydropyridin-3-yl)prop-2-en-1-one)], the “UV λmax” value (synthesis section) is reported as 386 nm and the ε (synthesis section) is reported as 36404 M⁻¹ cm⁻¹.
With `CC1(C)CCN(c2ccc(N3C=C(C(=O)C(F)(F)C(F)(F)C(F)(F)F)C(C)(C)CC3)cc2)C=C1C(=O)C(F)(F)C(F)(F)C(F)(F)F` [Compound 158] the “E (1%, 1 cm)” value (Table 1) was 750, the λcrit (Table 1) was 388 nm and the λmax (Table 1) was 369 nm. The ε [1] was 51600, the “E (1%, 1 cm)” value (Table 2) was 750 and the λcrit (Table 2) was 388 nm. It also gave a λmax (Table 2) of 369 nm and a ε [2] of 51600.
In the case of `CC1(C)CCN(C(C)(C)C)C=C1C(=O)C(F)(F)C(F)(F)C(F)(F)C(=O)C1=CN(C(C)(C)C)CCC1(C)C` [drawing 123], the “E (1%, 1 cm)” value (Table 5) is reported as 1177, the λcrit (Table 5) is reported as 337 nm and the λmax (Table 5) is reported as 317 nm. It also gave a ε [3] of 63346.
In the case of `CC1(C)CCN(c2ccc(Oc3ccc(N4C=C(C(=O)C(F)(F)F)C(C)(C)CC4)cc3)cc2)C=C1C(=O)C(F)(F)F` [Compound 111], the “E (1%, 1 cm)” value (Table 1) is reported as 923, the λcrit (Table 1) is reported as 365 nm and the λmax (Table 1) is reported as 343 nm. The ε [1] was 53548.
With `CCCCNc1ccc(C(=O)C2=CN(C(C)(C)C)CCC2(C)C)cc1` [Compound 102] the “E (1%, 1 cm)” value (Table 1) was 628.
In the case of `CC1(C)CCN(c2ccc(N3C=C(C(=O)C(F)(F)F)C(C)(C)CC3)cc2)CC1` [Compound 117], the “E (1%, 1 cm)” value (Table 1) is reported as 657, the λcrit (Table 1) is reported as 382 nm and the λmax (Table 1) is reported as 349 nm. The ε [1] was 25890.
With `CC1(C)CCN(c2ccc(Cc3ccc(N4C=C(C(=O)C(F)(F)F)C(C)(C)CC4)cc3)cc2)C=C1C(=O)C(F)(F)F` [Compound 108] the “E (1%, 1 cm)” value (Table 1) was 1051, the λcrit (Table 1) was 363 nm and the λmax (Table 1) was 341 nm. For the same molecule, the ε [1] was 60770.
In the case of `CC1(C)C=CN(c2ccccc2)C=C1C(=O)C(F)(F)F` [Compound 105], the “E (1%, 1 cm)” value (Table 1) is reported as 263, the λcrit (Table 1) is reported as 391 nm and the λmax (Table 1) is reported as 384 nm. For the same molecule, the ε [1] was 7393.
